Assay results from the NIST ThermoML archive (doi:10.1021/je300345m).

Experiment: xn = mol fraction of the nth substance listed
Details: Liquid, Vibrating tube method

CN(CCO)CCO [N-methyldiethanolamine] + O
mass density [kg/m3]
Details | x1 = 0.0609 | x1 = 0.0916 | x1 = 0.1313 | x1 = 0.1848 | x1 = 0.2608 | x1 = 0.3768 | x1 = 0.5764 | x1 = 1
298.15 K, 100 kPa | 1025.2 | 1035.6 | 1043.3 | 1049.7 | 1053.6 | 1052.3 | 1046 | 1036
303.15 K, 100 kPa | 1022.8 | 1032.8 | 1040.9 | 1046.1 | 1049.9 | 1048.6 | 1042.3 | 1032.4
308.15 K, 100 kPa | 1020.3 | 1029.9 | 1037.6 | 1042.5 | 1046.2 | 1044.8 | 1038.4 | 1028.6
313.15 K, 100 kPa | 1017.7 | 1026.9 | 1034.3 | 1038.8 | 1042.4 | 1040.9 | 1034.6 | 1024.8
318.15 K, 100 kPa | 1014.9 | 1023.8 | 1030.8 | 1034.7 | 1038.5 | 1037 | 1030.8 | 1021
323.15 K, 100 kPa | 1012 | 1020.6 | 1027.3 | 1031.1 | 1034.6 | 1033.1 | 1026.9 | 1017.2
328.15 K, 100 kPa | 1009 | 1017.2 | 1023.7 | 1027.3 | 1030.6 | 1029.1 | 1022.9 | 1013.3
333.15 K, 100 kPa | 1005.9 | 1013.8 | 1020.1 | 1023.6 | 1026.6 | 1025 | 1019 | 1009.4
338.15 K, 100 kPa | 1002.7 | 1010.3 | 1016.3 | 1019.8 | 1022.5 | 1020.9 | 1015 | 1005.6
343.15 K, 100 kPa | 999.3 | 1006.7 | 1012.5 | 1015.9 | 1018.4 | 1016.8 | 1010.9 | 1001.7
348.15 K, 100 kPa | 995.9 | 1003 | 1008.5 | 1011.9 | 1014.2 | 1012.6 | 1006.9 | 997.7
353.15 K, 100 kPa | 992.3 | 999.2 | 1004.6 | 1007.7 | 1009.9 | 1008.4 | 1002.7 | 993.8
358.15 K, 100 kPa | 988.7 | 995.3 | 1000.4 | 1003.5 | 1005.2 | 1004.1 | 998.6 | 989.9
363.15 K, 100 kPa | 984.9 | 991.3 | 996.3 | 999.2 | 1000.9 | 999.8 | 994.4 | 985.9
373.15 K, 700 kPa | 977.2 | 982.9 | 987.6 | 990.7 | 992 | 990.6 | 985.7 | 978.6
383.15 K, 700 kPa | 968.8 | 974.1 | 978.5 | 981.4 | 982.6 | 981.4 | 976.9 | 970.3
393.15 K, 700 kPa | 960.2 | 965.2 | 969.3 | 972.1 | 973.3 | 972.2 | 968.1 | 962.1
403.15 K, 700 kPa | 951.2 | 955.9 | 959.8 | 962.5 | 963.7 | 962.9 | 959.3 | 953.9
413.15 K, 700 kPa | 941.9 | 946.4 | 950.1 | 952.7 | 954 | 953.4 | 950.4 | 945.6
423.15 K, 700 kPa | 931.9 | 936.1 | 939.6 | 942.3 | 943.6 | 943.4 | 940.9 | 937

OCCNCCO [diethanolamine] + O
mass density [kg/m3]
Details | x1 = 0.0684 | x1 = 0.1025 | x1 = 0.1463 | x1 = 0.2045 | x1 = 0.2856 | x1 = 0.4067 | x1 = 0.6066 | x1 = 1
298.15 K, 100 kPa | 1034 | 1047.2 | 1059.5 | 1071.4 | 1081 | 1088 | 1092.2 | 1093.6
303.15 K, 100 kPa | 1031.8 | 1044.8 | 1056.9 | 1068.5 | 1077.9 | 1085 | 1088.9 | 1090.4
308.15 K, 100 kPa | 1029.7 | 1042.4 | 1054.2 | 1065.6 | 1074.9 | 1081.8 | 1085.8 | 1087.1
313.15 K, 100 kPa | 1027.2 | 1039.6 | 1051.3 | 1062.6 | 1071.7 | 1078.7 | 1082.7 | 1083.8
318.15 K, 100 kPa | 1024.9 | 1037 | 1048.4 | 1059.5 | 1068.6 | 1075.5 | 1079.5 | 1080.6
323.15 K, 100 kPa | 1022.2 | 1034.2 | 1045.4 | 1056.6 | 1065.3 | 1072.2 | 1076.2 | 1077.4
328.15 K, 100 kPa | 1019.5 | 1031.4 | 1042.4 | 1053.2 | 1062.1 | 1068.9 | 1073 | 1074.1
333.15 K, 100 kPa | 1016.6 | 1028.3 | 1039.2 | 1049.9 | 1058.8 | 1065.6 | 1069.6 | 1070.8
338.15 K, 100 kPa | 1013.8 | 1025.2 | 1036 | 1046.5 | 1055.3 | 1062.2 | 1066.3 | 1067.4
343.15 K, 100 kPa | 1010.6 | 1022 | 1032.6 | 1043.1 | 1051.8 | 1058.8 | 1062.9 | 1064
348.15 K, 100 kPa | 1007.5 | 1018.8 | 1029.3 | 1039.7 | 1048.3 | 1055.3 | 1059.4 | 1060.6
353.15 K, 100 kPa | 1004.2 | 1015.3 | 1025.8 | 1036 | 1044.8 | 1051.7 | 1055.9 | 1057.2
358.15 K, 100 kPa | 1000.8 | 1011.9 | 1022.3 | 1032.5 | 1041.1 | 1048 | 1052.4 | 1053.7
363.15 K, 100 kPa | 997.3 | 1008.3 | 1018.6 | 1028.7 | 1037.2 | 1044.4 | 1048.8 | 1050.1
373.15 K, 700 kPa | 990.2 | 1000.9 | 1011.5 | 1021.2 | 1029.9 | 1037.2 | 1041.8 | 1043.3
383.15 K, 700 kPa | 982.3 | 992.9 | 1003.3 | 1012.9 | 1021.7 | 1028.9 | 1033.8 | 1035.5
393.15 K, 700 kPa | 974.2 | 984.7 | 995.1 | 1004.7 | 1013.5 | 1020.9 | 1026 | 1028.1
403.15 K, 700 kPa | 965.8 | 976.3 | 986.7 | 996.2 | 1005.1 | 1012.8 | 1018.2 | 1020.5
413.15 K, 700 kPa | 957.1 | 967.5 | 977.9 | 987.5 | 996.5 | 1004.5 | 1010.2 | 1012.9
423.15 K, 700 kPa | 947.9 | 958.1 | 969 | 978.2 | 987.2 | 995.4 | 1001.7 | 1004.8
